# Biological target: T1, Enoyl-[acyl-carrier-protein] reductase [NADH] (UniProt A0A6F8TJQ1)
# T1 sequence (A0A6F8TJQ1 whole entry): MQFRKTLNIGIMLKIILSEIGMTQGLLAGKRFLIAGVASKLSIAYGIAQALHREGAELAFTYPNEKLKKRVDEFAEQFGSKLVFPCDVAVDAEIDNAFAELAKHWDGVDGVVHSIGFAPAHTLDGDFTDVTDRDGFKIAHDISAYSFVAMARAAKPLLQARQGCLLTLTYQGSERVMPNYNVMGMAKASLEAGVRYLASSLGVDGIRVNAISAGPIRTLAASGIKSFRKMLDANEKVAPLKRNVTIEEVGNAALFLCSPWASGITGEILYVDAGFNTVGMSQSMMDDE
# Assay: standard FabI enzyme assay
# Protocol: To probe the effects of varying ring systems and amine placement on FabI target engagement, the apparent inhibition constants (Kiapp) for select compounds were determined using purified FabI. The goal of these studies was two-fold, to comparatively assess fabimycin, Debio-1452-NH3, and Debio-1452, and to also assess differential activity against the E. coli and A. baumannii versions of FabI. FabI from E. coli and A. baumannii were recombinantly expressed and purified, and the ability for each compound to inhibit the activity of these enzymes was evaluated using a standard FabI enzyme assay.
compound,measurement,value
"Cc1c(CN(C)C(=O)/C=C/c2cnc3c(c2)C[C@@H](N)C(=O)N3)oc2ccccc12 [US20240190872, Compound (+-)-Debio-1452-NH3]",Ki,114 nM

# From BindingDB's records for patent US20240190872 (University of Illinois, 2024)
